Assay results as given in patent publication US10350230B2, “Use of albiflorin or pharmaceutically acceptable salt for prevention and/or treatment of irritable bowel syndrome” (priority 2015, dated 2019).
Structures can show the parent of a compound that is named as a salt.

How the values were obtained:
[1] = system: mice in light-dark shuttle box; experiment: Light-dark shuttle box test in mice (anti-anxiety test); assay type: in vivo; details: for number of times of returning from the dark box back to the light box (result in words): albiflorin high-, mid- and low-dose groups, diazepam group, compared with normal control group; for Number of times of returning from dark box back to light box: 7 days, mice
Description: Mice were randomly divided into 5 groups, i.e. high-dose group of albiflorin (14 mg/kg/d), mid-dose group of albiflorin (7 mg/kg/d), low-dose group of albiflorin (3.5 mg/kg/d), diazepam group (2.5 mg/kg/d), and normal control group. Gavage administration was performed once a day, for 7 consecutive days. During the administration, animals had free access to food and water. The test was carried out 1 hour after the administration on Day 8.
Within the light-dark shuttle box (44 cm×21 cm×21 cm), the dark box accounts for one third thereof, with a cover on the top; and the light box accounts for two thirds thereof, with illumination brightness; and there is a hole between the two boxes for animal to pass through. During the test, mice were placed in the center of the light box, back to the dark box, and then observed. The number of times of entering into the dark box followed by returning to the light box in mice was counted, which was used as an index for the evaluation of anti-anxiety effect of a drug.
8.1.5 Statistical Analysis The data were expressed as X±SD, and the experimental results were analyzed by one-way ANOVA, using SPSS 11.5 statistical software.

[2] = system: chronic unpredictable stress (CUS) model in rats; experiment: Chronic stress depression model in rats: open field test; details: for Number of times of horizontal movement in open field / Number of times of vertical movement in open field: CUS rats, 5 min, Means±SEM; for number of times of horizontal movement of rats in open field (result in words) / number of times of vertical movement of rats in open field (result in words): compared with the model group
[3] = system: small intestine spasm models induced by Neostigmine in mice; experiment: Abdominal pain of irritable bowel syndrome in mice (Neostigmine small intestine spasm, carbon powder propulsion); assay type: in vivo; details: for propulsive distance and propulsive rate of carbon powder suspension in mice intestine tract stimulated by Neostigmine (result in words): high-, mid- and low-dose groups, compared with pathology modeling control group; for Propulsive distance / Propulsive rate: 7 days, Neostigmine mice, carbon powder
Description: All the animals were deprived of food for 12 hours before the test. […] After 15 minutes, gavage administration of carbon powder paste was performed on all groups (0.2 ml/10 g body weight, each dosage contains 0.05 g of carbon powder and 0.02 g of carboxymethyl cellulose). The animals were killed 20 minutes later. The propulsive length of carbon powder in small intestine and the total length of small intestine were measured respectively, and then the propulsive rate of carbon powder was calculated. Statistical analysis of data was performed using t-test for intergroup comparison.
The propulsive distance: to measure the propulsive length of carbon powder in small intestine.
Propulsive rate (%)=(propulsive length/total length of small intestine)×100%.

[4] = system: chronic unpredictable stress (CUS) model in rats; experiment: Chronic stress depression model in rats: sucrose aqueous solution-drinking test; details: for Sugar aqueous solution preference: 38 days, CUS rats, Means±SEM; for sugar aqueous solution preference of rats (result in words): compared with the model group
[5] = system: sleep time of mice induced by threshold dose of pentobarbital sodium; experiment: Sleep induced by pentobarbital sodium in mice; assay type: in vivo; details: for Sleep time: 60 min before pentobarbital sodium 50 mg/kg i.p., mice; for sleep time of mice induced by threshold dose of pentobarbital sodium (result in words): compared with normal saline group
Description: Mice with a body weight of 18-22 g, male and female, were selected. Mice with a single-sex were used in each test. The mice were randomly divided into groups as follows: albiflorin group, diazepam group (positive control group) and control group (normal saline). There were 10 mice in each group. 60 minutes after the gavage administration, threshold dose of pentobarbital sodium (50 mg/kg) was injected intraperitoneally. The disappearance of righting reflex was recorded as time to fall asleep, and the period from the righting reflex being disappeared until the righting reflex being recovered was recorded as sleep duration time. Compared with the control group, the significance was determined by time t test.

[6] = system: diarrhea model of irritable bowel syndrome induced by restraint stress in rats; experiment: Diarrhea of irritable bowel syndrome induced by restraint stress in rat; assay type: in vivo; details: for number of fecal pellets excreted (result in words): high-, mid- and low-dose groups, compared with model control group; for Number of fecal pellets excreted in 1 h / Time for excreting glass ball: 7 days, restraint stress rats
Source text: The restraint stress stimulus method was used to induce abnormal defecation in rats, thereby leading to increase of colon smooth muscle movement and accelerating intestinal transport.
The animals were randomly divided into 10 groups as follows: normal control group; model control group (normal saline); high-, mid- and low-dose groups of test drugs (albiflorin and paeoniflorin); and positive control groups (loperamide hydrochloride (Imodium™) and trimebutine maleate (Yuanshengliwei™)). Gavage administration was performed on each group once a day, for 7 consecutive days.
The rats were deprived of food for 24 hours before the test. Half an hour after the last administration, the rats were anesthetized with ethyl ether. After the rat fainted away, its front shoulder, front upper limbs and chest were bound with scotch tape to prevent the front upper limbs from scratching its face, but the movement of the front upper limbs was not limited. A glass ball with a diameter of 3 mm was placed into the rectum 3 cm away from anus. The rats were moved rapidly into cages which were padded with clean filter paper. Timing started when the rat woke up, and the binding time was one hour. The number of fecal pellets excreted by the rat in one hour and the time for excreting glass ball were recorded. Statistical analysis of data was performed using t-test for intergroup comparison.

Compound | number of times of returning from the dark box back to the light box (result in words) [1] | propulsive distance and propulsive rate of carbon powder suspension in mice intestine tract stimulated by Neostigmine (result in words) [3] | Propulsive distance ([3]; high-dose, 14 mg/kg/d gavage) [cm] | Propulsive rate ([3]; high-dose, 14 mg/kg/d gavage) [%] | Propulsive distance ([3]; low-dose, 3.5 mg/kg/d gavage) [cm] | Propulsive rate ([3]; low-dose, 3.5 mg/kg/d gavage) [%] | Propulsive distance ([3]; mid-dose, 7 mg/kg/d gavage) [cm] | Propulsive rate ([3]; mid-dose, 7 mg/kg/d gavage) [%] | sleep time of mice induced by threshold dose of pentobarbital sodium (result in words) [5] | number of fecal pellets excreted (result in words) [6] | Number of fecal pellets excreted in 1 h ([6]; high-dose, 9.8 mg/kg/d gavage) | Time for excreting glass ball ([6]; high-dose, 9.8 mg/kg/d gavage) [min] | Number of fecal pellets excreted in 1 h ([6]; low-dose, 2.45 mg/kg/d gavage) | Time for excreting glass ball ([6]; low-dose, 2.45 mg/kg/d gavage) [min] | Number of fecal pellets excreted in 1 h ([6]; mid-dose, 4.9 mg/kg/d gavage) | Time for excreting glass ball ([6]; mid-dose, 4.9 mg/kg/d gavage) [min] | further results
C[C@]12C[C@@H](O)[C@@H]3C[C@@]1(O[C@@H]1O[C@H](CO)[C@@H](O)[C@H](O)[C@H]1O)[C@@]3(COC(=O)c1ccccc1)C(=O)O2 [Albiflorin] | significantly increase | decreased obviously | 22.80 ± 4.78 | 57.47 ± 10.67 | 22.10 ± 3.90 | 57.05 ± 4.69 | 20.80 ± 4.64 | 54.53 ± 9.39 | obviously prolong | decreased obviously | 2.50 ± 1.27 | 10.60 ± 17.58 | 2.60 ± 1.84 | 19.90 ± 17.69 | 1.80 ± 1.48 | 12.00 ± 17.53 | Number of times of returning from dark box back to light box ([1]; high-dose, 14 mg/kg/d gavage): 13.9 ± 3.23; Number of times of returning from dark box back to light box ([1]; low-dose, 3.5 mg/kg/d gavage): 10.6 ± 3.42; Number of times of returning from dark box back to light box ([1]; mid-dose, 7 mg/kg/d gavage): 12.1 ± 3.51; Number of times of horizontal movement in open field ([2]; 3.5 mg/kg gavage once a day): 95.40 ± 9.23; Number of times of vertical movement in open field ([2]; 3.5 mg/kg gavage once a day): 20.50 ± 1.81; number of times of horizontal movement of rats in open field (result in words) ([2]; 3.5 mg/kg): obviously increased; number of times of horizontal movement of rats in open field (result in words) ([2]; 7.0 mg/kg and 14.0 mg/kg): can not obviously increase; Number of times of horizontal movement in open field ([2]; 7.0 mg/kg gavage once a day): 98.20 ± 8.61; Number of times of vertical movement in open field ([2]; 7.0 mg/kg gavage once a day): 21.10 ± 2.17; Number of times of horizontal movement in open field ([2]; 14.0 mg/kg gavage once a day): 104.10 ± 11.11; Number of times of vertical movement in open field ([2]; 14.0 mg/kg gavage once a day): 22.10 ± 2.66; number of times of vertical movement of rats in open field (result in words) ([2]; 3.5-14.0 mg/kg): obviously increased; Sugar aqueous solution preference ([4]; 3.5 mg/kg gavage once a day): 60.04 ± 10.86%; sugar aqueous solution preference of rats (result in words) ([4]; 3.5 mg/kg): did not obviously increase; sugar aqueous solution preference of rats (result in words) ([4]; 7.0 mg/kg and 14.0 mg/kg): obviously increased; Sugar aqueous solution preference ([4]; 7.0 mg/kg gavage once a day): 76.19 ± 5.35 %; Sugar aqueous solution preference ([4]; 14.0 mg/kg gavage once a day): 78.12 ± 4.04 %; Sleep time ([5]; 7 mg/kg gavage): 90.2 ± 15.1 min; Sleep time ([5]; 14 mg/kg gavage): 98.8 ± 12.4 min
CN1C(=O)CN=C(c2ccccc2)c2cc(Cl)ccc21 [Diazepam, diazepam, reference compound] | significantly increase | – | – | – | – | – | – | – | obviously prolong | – | – | – | – | – | – | – | Number of times of returning from dark box back to light box ([1]; 2.5 mg/kg/d gavage): 13.6 ± 3.35; Sleep time ([5]; 0.5 mg/kg gavage): 96. ± 14.6 min; Sleep time ([5]; 1 mg/kg gavage): 102.0 ± 16.2 min
CNCCC(Oc1ccc(C(F)(F)F)cc1)c1ccccc1 (stereo not shown) [Flx, Fluoxetine, reference compound] | – | – | – | – | – | – | – | – | – | – | – | – | – | – | – | – | Number of times of horizontal movement in open field ([2]; 10 mg/kg gavage once a day): 90.60 ± 7.72; Number of times of vertical movement in open field ([2]; 10 mg/kg gavage once a day): 20.80 ± 1.93; number of times of horizontal movement of rats in open field (result in words) ([2]; 10 mg/kg long-term gavage): obviously increased; number of times of vertical movement of rats in open field (result in words) ([2]; 10 mg/kg long-term gavage): obviously increased; Sugar aqueous solution preference ([4]; 10 mg/kg gavage once a day): 70.63 ± 6.86 %; sugar aqueous solution preference of rats (result in words) ([4]; 10 mg/kg long-term gavage): obviously increased
CN(C)C(=O)C(CCN1CCC(O)(c2ccc(Cl)cc2)CC1)(c1ccccc1)c1ccccc1 [Loperamide hydrochloride, loperamide hydrochloride] | – | – | – | – | – | – | – | – | – | – | – | – | – | – | – | – | Number of fecal pellets excreted in 1 h ([6]; 0.17 mg/kg/d gavage): 1.40 ± 0.97; Time for excreting glass ball ([6]; 0.17 mg/kg/d gavage): 26.00 ± 28.30 min
C[C@@]12C[C@@]3(O)O[C@@H](O1)[C@]1(COC(=O)c4ccccc4)[C@H]3C[C@@]12O[C@@H]1O[C@H](CO)[C@@H](O)[C@H](O)[C@H]1O [Paeoniflorin, paeoniflorin, reference compound] | – | decreased only in high-dose group | 28.80 ± 3.79 | 65.64 ± 8.80 | 31.80 ± 3.79 | 72.64 ± 4.69 | 31.00 ± 1.93 | 71.92 ± 7.51 | – | only a trend to decrease | 3.71 ± 2.02 | 10.70 ± 16.06 | 4.10 ± 1.81 | 10.64 ± 15.01 | 3.96 ± 1.36 | 10.50 ± 14.03 | –
trimebutine maleate | – | – | – | – | – | – | – | – | – | – | – | – | – | – | – | – | Number of fecal pellets excreted in 1 h ([6]; 6.25 mg/kg/d gavage): 3.70 ± 2.26; Time for excreting glass ball ([6]; 6.25 mg/kg/d gavage): 17.80 ± 21.88 min
